For orientation: IC50 means the midpoint of a concentration-inhibition curve. A word on the EC50: it is the midpoint of the concentration-response curve.

IC50 and EC50 data for 31 compounds are collected here from patent US12202844B2, “MAP4K1 inhibitors” (Blueprint Medicines Corporation, priority 2021, dated 2025).

Test [1] deals with T1, MAP4K1 (HPK1) (Homo sapiens, UniProt Q92918).
T1 construct: purchased Invitrogen
In words: Inhibition of MAP4K1 biochemical enzymatic activity (EZReader 2 electrophoretic mobility shift). The note with it: HPK1 (Invitrogen), S6K2tide 1.5 μM, 120 min; ATP 26 μM or 1000 μM (not given). The gist of the method:
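Untreated enzyme (0.1-15 nM) was incubated with 1.5 μM fluorescent peptide and 20-1000 μM ATP (apparent Km or 1 mM) in HEPES pH 7.5, MgCl2, DTT, Brij 35 at 25° C. for 60-180 min, with 1% DMSO and a 10-point 4-fold compound series. After an EDTA stop, product/substrate peptide peak ratio was read by mobility shift.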
A general note: Mobility shift assays separate free from complexed probe on a gel.

Test [2] relates to Primary T Cell (expanded CD3+ T cells). In words: T cell enhancement of cytokines: IL2 measurement (HTRF) in stimulated expanded CD3+ T cells. The test is classed as cell-based, human. The note with it: Homo sapiens, T-cell, 24 h, plate-bound anti-CD3 and soluble anti-CD28, 24 h, IL2 by HTRF; read-out: IL-2 Primary T Cell EC50. The gist of the method: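 Healthy-donor T cells (95-98% CD3+) expanded 10-14 days with IL2 and CD3/CD28 beads, then cryopreserved. 100K cells/well in X-VIVO 10 serum-free medium were stimulated with plate-bound anti-CD3 plus soluble anti-CD28 with compound at various concentrations for 24 h. Secreted IL2 measured by HTRF after 24 h antibody incubation.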
For orientation: TR-FRET usually uses a lanthanide donor and a delayed reading to cut background.

T1 sequence (Q92918 whole entry): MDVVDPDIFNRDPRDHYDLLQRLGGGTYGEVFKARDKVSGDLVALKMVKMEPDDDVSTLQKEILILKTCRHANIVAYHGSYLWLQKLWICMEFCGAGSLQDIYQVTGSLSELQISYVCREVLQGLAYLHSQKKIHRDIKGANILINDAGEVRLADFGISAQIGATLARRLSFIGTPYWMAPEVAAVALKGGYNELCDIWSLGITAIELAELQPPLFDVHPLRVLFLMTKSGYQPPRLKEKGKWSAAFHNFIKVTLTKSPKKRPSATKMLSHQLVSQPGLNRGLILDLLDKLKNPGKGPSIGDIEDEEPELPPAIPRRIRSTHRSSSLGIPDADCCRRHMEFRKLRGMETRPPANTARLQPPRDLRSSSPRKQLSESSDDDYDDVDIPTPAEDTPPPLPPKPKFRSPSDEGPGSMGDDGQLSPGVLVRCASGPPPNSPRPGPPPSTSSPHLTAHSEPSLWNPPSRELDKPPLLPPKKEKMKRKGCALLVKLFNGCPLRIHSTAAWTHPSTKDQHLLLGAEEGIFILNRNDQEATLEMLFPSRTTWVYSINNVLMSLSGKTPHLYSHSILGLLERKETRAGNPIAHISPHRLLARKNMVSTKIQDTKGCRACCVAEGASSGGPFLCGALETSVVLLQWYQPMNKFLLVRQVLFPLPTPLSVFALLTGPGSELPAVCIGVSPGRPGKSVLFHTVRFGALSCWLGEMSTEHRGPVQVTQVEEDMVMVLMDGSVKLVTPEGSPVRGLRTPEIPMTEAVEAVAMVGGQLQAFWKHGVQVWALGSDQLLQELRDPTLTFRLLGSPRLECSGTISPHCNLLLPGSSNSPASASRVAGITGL

On to `CCS(=O)(=O)[C@H]1C[C@@H](Oc2ccc(C(C)(C)N)c3cc(Nc4ccc5c(n4)[C@@H](C)C(C)(C)OC5=O)ncc23)C1` [Compound 63], for which the half-maximal inhibitory concentration (IC50) in test [1] was 0.09 nM. Also, the EC50 in test [2] worked out at 14 nM.
For the compound `CCS(=O)(=O)[C@H]1C[C@@H](Nc2ncc(C(C)(C)N)c3cc(Nc4ccc5c(n4)[C@@H](C)C(C)(C)OC5=O)ncc23)C1` [Compound 64], the half-inhibitory concentration (IC50) in test [1] was 0.21 nM. Also, in test [2], the EC50 came out at 105 nM.
On to `C[C@H](CCS(C)(=O)=O)Oc1ncc(C(C)(C)N)c2cc(Nc3ccc4c(n3)C3(CC3)C(C)(C)OC4=O)ncc12` [Compound 67], for which the concentration for half-maximal inhibition (IC50) in test [1] stood at 0.77 nM. Also, the EC50 in test [2] amounted to 40 nM.
In the case of `CC[C@@](C)(N)c1cnc(O[C@H]2C[C@@H](S(=O)(=O)CC)C2)c2cnc(Nc3ccc4c(n3)[C@@H](C)[C@H](C)OC4=O)cc12` [Compound 77], the half-maximal inhibitory concentration (IC50) in test [1] came to 0.06 nM. Besides, in test [2], the EC50 stood at 3 nM.
As to `CC[C@@](C)(N)c1cnc(O[C@H]2C[C@@H](S(C)(=O)=O)C2)c2cnc(Nc3ccc4c(n3)[C@@H](C)C(C)(C)OC4=O)cc12` [Compound 78], in test [1], the half-inhibitory concentration (IC50) is 0.14 nM. In addition, the EC50 in test [2] was determined as 7 nM.
For `CCS(=O)(=O)[C@H]1C[C@@H](Oc2ncc(C(C)(C)N)c3cc(Nc4ccc5c(n4)[C@@H](C)C(C)(C)OC5=O)ncc23)C1` [Compound 80], in test [1], the IC50 is 0.08 nM. Also, the concentration for a half-maximal effect (EC50) in test [2] was 9 nM.
On to `C[C@@H]1OC(=O)c2ccc(Nc3cc4c(C(C)(C)N)cnc(O[C@H]5C[C@@H](S(=O)(=O)N(C)C)C5)c4cn3)nc2[C@H]1C` [Compound 81], for which, in test [1], the half-maximal inhibitory concentration (IC50) worked out at 0.1 nM. For the same compound, the EC50 in test [2] stood at 18 nM.
`CC[C@@](C)(N)c1cnc(O[C@H](C)C[C@@H](C)S(C)(=O)=O)c2cnc(Nc3ccc4c(n3)CC(C)(C)OC4=O)cc12` [Compound 87]: in test [1], the 50% inhibitory concentration (IC50) was found to be 0.13 nM. For the same compound, in test [2], the concentration giving a half-maximal response (EC50) is 29 nM.
As to `CC[C@@](C)(N)c1cnc(O[C@H](C)C[C@@H](C)S(C)(=O)=O)c2cnc(Nc3ccc4c(n3)C(C)(C)COC4=O)cc12` [Compound 88], the IC50 in test [1] was 0.21 nM. The concentration giving a half-maximal response (EC50) in test [2] is 23 nM.
Regarding `CC[C@@](C)(N)c1cnc(O[C@H](C)C[C@@H](C)S(C)(=O)=O)c2cnc(Nc3ccc4c(n3)[C@@H](C)[C@H](C)OC4=O)cc12` [Compound 90], in test [1], the IC50 is 0.11 nM. Moreover, the concentration for a half-maximal effect (EC50) in test [2] came to 3 nM.
Take `C[C@H](C[C@@H](C)S(C)(=O)=O)Oc1ncc(C(C)(C)N)c2cc(Nc3ccc4c(n3)[C@@H](C)C(C)(C)OC4=O)ncc12` [Compound 91]: the IC50 in test [1] was found to be 0.22 nM. Besides, the concentration giving a half-maximal response (EC50) in test [2] was 24 nM.
Taken in the same sequence, the figures for `CC[C@@](C)(N)c1cnc(O[C@H](C)CCS(C)(=O)=O)c2cnc(Nc3ccc4c(n3)[C@@H](C)C(C)(C)OC4=O)cc12` [Compound 94] were 0.14 nM and 26 nM.
For the compound `CC[C@@](C)(N)c1cnc(O[C@@H](C)CCS(C)(=O)=O)c2cnc(Nc3ccc4c(n3)[C@@H](C)C(C)(C)OC4=O)cc12` [Compound 95], in test [1], the half-maximal inhibitory concentration (IC50) is 0.08 nM. For the same compound, in test [2], the concentration for a half-maximal effect (EC50) worked out at 52 nM.
In the case of `C[C@@H]1c2nc(Nc3cc4c(C(C)(C)N)cnc(O[C@H]5C[C@@H](S(=O)(=O)C6CC6)C5)c4cn3)ccc2C(=O)OC1(C)C` [Compound 102], the IC50 in test [1] was found to be 0.14 nM. Also, the EC50 in test [2] was determined as 15 nM.
On to `CC[C@@](C)(N)c1cnc(O[C@H](C)CCS(C)(=O)=O)c2cnc(Nc3ccc4c(n3)C3(CC3)C(C)(C)OC4=O)cc12` [Compound 105], for which, in test [1], the IC50 amounted to 0.37 nM. The EC50 in test [2] was 41 nM.
On to `CC[C@@](C)(N)c1cnc(O[C@H]2C[C@@H](S(=O)(=O)CC)C2)c2cnc(Nc3ccc4c(n3)[C@@H](C)C(C)(C)OC4=O)cc12` [Compound 117], for which the IC50 in test [1] is 0.05 nM. Further, the concentration giving a half-maximal response (EC50) in test [2] worked out at 6 nM.
For the compound `C[C@@H]1c2nc(Nc3cc4c(C(C)(C)N)cnc(O[C@H]5C[C@@H](S(=O)(=O)N(C)C)C5)c4cn3)ccc2C(=O)OC1(C)C` [Compound 118], in test [1], the half-maximal inhibitory concentration (IC50) is 0.11 nM. In addition, the EC50 in test [2] came to 27 nM.
In the case of `CCS(=O)(=O)[C@H]1C[C@@H](Oc2ncc([C@](C)(N)COC)c3cc(Nc4ccc5c(n4)[C@@H](C)[C@H](C)OC5=O)ncc23)C1` [Compound 122], the IC50 in test [1] came to 0.1 nM. The concentration giving a half-maximal response (EC50) in test [2] is 27 nM.
With `COC[C@@](C)(N)c1cnc(O[C@H]2C[C@@H](S(C)(=O)=O)C2)c2cnc(Nc3ccc4c(n3)[C@@H](C)C(C)(C)OC4=O)cc12` [Compound 123], the IC50 in test [1] worked out at 0.16 nM. Also, the 50% effective concentration (EC50) in test [2] was found to be 34 nM.
Taken in the same sequence, the figures for `CC[C@@](C)(N)c1cnc(O[C@H](C)C[C@@H](C)S(=O)(=O)CC)c2cnc(Nc3ccc4c(n3)[C@@H](C)[C@H](C)OC4=O)cc12` [Compound 127, (7S,8R)-2-((5-((R)-2-Aminobutan-2-yl)-8-(((2R,4R)-4-(ethylsulfonyl)pentan-2-yl)oxy)-2,7-naphthyridin-3-yl)amino)-7,8-dimethyl-7,8-dihydro-5H-pyrano[4,3-b]pyridin-5-one] were 0.12 nM and 10 nM.
Take `CCS(=O)(=O)[C@H](C)C[C@@H](C)Oc1ncc(C(C)(C)N)c2cc(Nc3ccc4c(n3)[C@@H](C)C(C)(C)OC4=O)ncc12` [Compound 128]: the IC50 in test [1] is 0.16 nM. Further, the EC50 in test [2] amounted to 36 nM.
Consider `CC[C@@](C)(N)c1cnc(O[C@H](C)C[C@@H](C)S(C)(=O)=O)c2cnc(Nc3ccc4c(n3)[C@@H](C)C(C)(C)OC4=O)cc12` [Compound 129], for which, in test [1], the half-inhibitory concentration (IC50) was found to be 0.16 nM. For the same compound, in test [2], the 50% effective concentration (EC50) is 7 nM.
For `CC[C@@](C)(N)c1cnc(O[C@@H](C)CCS(=O)(=O)CC)c2cnc(Nc3ccc4c(n3)[C@@H](C)C(C)(C)OC4=O)cc12` [Compound 132], the half-inhibitory concentration (IC50) in test [1] turned out to be 0.19 nM. Moreover, in test [2], the EC50 was found to be 66 nM.
Taken in the same sequence, the figures for `CC[C@@](C)(N)c1cnc(O[C@H](C)C[C@@H](C)S(C)(=O)=O)c2cnc(Nc3ccc4c(n3)C3(CC3)C(C)(C)OC4=O)cc12` [Compound 136, 2′-((5-((R)-2-Aminobutan-2-yl)-8-(((2R,4R)-4-(methylsulfonyl)pentan-2-yl)oxy)-2,7-naphthyridin-3-yl)amino)-7′,7′-dimethyl-5′H,7′H-spiro[cyclopropane-1,8′-pyrano[4,3-b]pyridin]-5′-one] were 0.28 nM and 10 nM.
Taken in the same sequence, the figures for `COC[C@@](C)(N)c1cnc(O[C@H]2C[C@H](CS(C)(=O)=O)C2)c2cnc(Nc3ccc4c(n3)[C@@H](C)C(C)(C)OC4=O)cc12` [Compound 139] were 0.36 nM and 74 nM.
As to `COC[C@@](C)(N)c1cnc(O[C@H]2C[C@@H](CS(C)(=O)=O)C2)c2cnc(Nc3ccc4c(n3)[C@@H](C)C(C)(C)OC4=O)cc12` [Compound 140], in test [1], the IC50 amounted to 0.33 nM. Also, the EC50 in test [2] amounted to 33 nM.
In the case of `CCS(=O)(=O)[C@H]1C[C@@H](Oc2ncc([C@](C)(N)COC)c3cc(Nc4ccc5c(n4)[C@@H](C)C(C)(C)OC5=O)ncc23)C1` [Compound 141], the concentration for half-maximal inhibition (IC50) in test [1] was 0.15 nM. The EC50 in test [2] worked out at 15 nM.
In the case of `CC[C@@](C)(N)c1cnc(O[C@H](C)C[C@@H](C)S(=O)(=O)CC)c2cnc(Nc3ccc4c(n3)[C@@H](C)C(C)(C)OC4=O)cc12` [Compound 143], the IC50 in test [1] is 0.15 nM. Also, in test [2], the 50% effective concentration (EC50) came to 16 nM.
With `COC[C@@](C)(N)c1cnc(O[C@H](C)C[C@@H](C)S(C)(=O)=O)c2cnc(Nc3ccc4c(n3)[C@@H](C)C(C)(C)OC4=O)cc12` [Compound 144], the half-inhibitory concentration (IC50) in test [1] came out at 0.23 nM. The EC50 in test [2] worked out at 39 nM.
As for `COC[C@@](C)(N)c1cnc(O[C@H]2C[C@@H](S(=O)(=O)C3CC3)C2)c2cnc(Nc3ccc4c(n3)[C@@H](C)C(C)(C)OC4=O)cc12` [Compound 145], the IC50 in test [1] is 0.21 nM. Further, the 50% effective concentration (EC50) in test [2] was found to be 32 nM.
As to `COC[C@@](C)(N)c1cnc(O[C@H]2C[C@@H](S(C)(=O)=O)C2)c2cnc(Nc3ccc4c(n3)C3(CC3)C(C)(C)OC4=O)cc12` [Compound 162], the half-inhibitory concentration (IC50) in test [1] was determined as 0.3 nM. For the same compound, the EC50 in test [2] came out at 32 nM.
